Series [1] in a line: Solubility in aqueous buffer. Type of series: physicochemical. To be noted: citrate phosphate buffered saline, pH 7.4, aqueous buffer, kinetic from dmso stock. As for the experimental part: Solubility assays were carried out on a Biomek FX lab automation workstation (Beckman Coulter, Inc., Fullerton, CA) using μSOL Evolution software (pION Inc.). Compound stock (10 mM in DMSO, 10 μL) was added to 1-propanol (190 μL) to make a reference stock plate. Reference stock solution (5 μL) was mixed with 1-propanol (70 μL) and citrate phosphate buffered saline (pH 7, 75 μL) to make the reference plate which was then measured with UV detection. Test compound stock (10 mM, 6 μL) was added to citrate phosphate buffered saline (594 μL) in a 96-well storage plate and mixed. […] The suspension was then filtered through a 96-well filter plate (pION Inc.). Filtrate (75 μL) was mixed with 1-propanol (75 μL) to make the sample plate, and the UV spectrum (250 nm −500 nm) of the sample plate was recorded. Calculation of solubility was carried out using μSOL Evolution software based on the AUC of the UV spectrum of the sample plate and the reference plate. All compounds were tested in triplicate.

For a further series, the system named is L. mexicana. Nature of the series: Efficacy in murine model of cutaneous leishmaniasis (footpad lesion size). In kind it is in vivo. To be noted: BALB/c mice infected with L. mexicana, measured weeks 4–12. As for the experimental part: Female BALB/c mice (~20 g) were injected in one hind footpad with 1 x 10^6 stationary phase promastigotes suspended in 25 μl of phosphate buffered saline (PBS). Four weeks after infection, when a small cutaneous lesion was visible in the injected footpad, cohorts of five mice were treated with either compound or vehicle alone (90 μl), delivered daily for 10 consecutive days by oral gavage using a 20-gauge x 30 mm disposable plastic feeding needle. Vehicle consisted of 10/10/40/39 mixture of ethanol/(PG)/PEG400/PBS plus 1% (weight/volume) 2HβCD (PG is propylene glycol, PEG is polyethylene glycol, 2HβCD is 2-hydroxy-β-cyclodextran). The daily dose for each compound was: compound 4, 25 mg/kg; compound 5, 30 mg/kg; miltefosine, 20 mg/kg. The width of the footpad (top to bottom) was measured with calipers before injection of parasites (day 0) and weekly from weeks 4–12. The width of the uninfected contralateral footpad was also measured each week, and its width was subtracted from that of the infected footpad to determine lesion size.

Series [2] concerns L. mexicana intracellular amastigotes. The experiment in a line: Growth inhibition of intracellular amastigotes in J774A.1 macrophages (Renilla luciferase luminescence). Type of series: cell-based. To be noted: Leishmania mexicana, J774.A1; intracellular amastigotes in J774A.1 macrophages; mean ± standard deviation, n = 2; read-out: L. mexicana EC50. As for the experimental part: (§1) L. mexicana (MNYZ/BZ/62/M379) or L. donovani (LdBob strain) parasites expressing the Renilla luciferase gene from a rRNA gene locus were used to infect J774A.1 macrophages. Growth of intracellular amastigotes was measured using a luminescence assay, as detailed previously. The growth inhibitor activities of compounds were tested against bloodstream form Lister 427 T. brucei in 96-well plates containing 1 X 10^5 parasites per well in 0.2 ml HMI-11 medium (Gibco/Thermo Fisher). Compounds (2 μl volumes in DMSO) were added to the parasites using serial 3-fold dilutions to cover a range of concentrations from about 10 μM to 1 nM. After 48 h incubation at 37°C under a humidified 5% CO2 atmosphere, 10 μl of 10% Triton X-100 and 100 X stock SYBR Green I (Sigma-Aldrich) in PBS was added and florescence measured (excitation 497 nm; emission 520 nm) after 1 h incubation in the dark using a Spectra Max Gemini XPS fluorimeter (Molecular Devices). Data were log transformed and EC50 values were determined using GraphPad Prism 6 (GraphPad Software). In the absence of growth inhibiting compounds, the parasites grew from an initial density of 5 X 10^5 cells/mL to ~3 X 10^6 cells/mL.
[…]. These were chosen as candidates for further study. From these 230 compounds, we were able to repurchase 113 from commercial vendors. These compounds were characterized for purity by ultra-performance liquid chromatography using ultraviolet spectroscopy and evaporative light scattering detection and identity by mass spectrometry. All validated compounds were profiled for activity against intracellular amastigotes, the disease-causing stage of the life cycle. Intracellular amastigote activity was determined using a strain of L. mexicana in which the Renilla luciferase gene was integrated into the rRNA locus, allowing robust expression for measuring amastigote growth within cultured macrophages. All 113 compounds were applied at 1 μM concentration for 96 h to J774A.1 macrophages infected with L. mexicana luciferase-expressing parasites. […].
Next, we generated dose-response curves for these 55 compounds against intracellular amastigotes and independently against J774A.1 macrophages to establish the relative potency of each compound against the pathogen and its host cell. […]. The nine remaining compounds, each representing a unique chemical scaffold (compounds 1–9, Fig 3), were designated top hits (Fig 1).

A short description of series [3]: Liver microsomal stability, human. To be noted: both, liver microsomes, pH 7.4. As for the experimental part: One part of 10 mM DMSO compound stock was mixed with 4 parts of acetonitrile to make 2 mM diluted compound stock in DMSO and acetonitrile. 29.1 µL diluted compound stock was added to 2.3 mL liver microsomal solution and vortexed to make microsomal solution with compound. […] For the 0 h time point, 450 µL pre-cooled (4 °C) internal standard (10 µM warfarin in methanol) was added to the first three columns before the reaction was initiated. 1.25 ml of microsome assay solution A (Fisher Scientific, #NC9255727) was combined with 0.25 ml of solution B (Fisher Scientific, #NC9016235) in 3.5 ml of potassium phosphate buffer (0.1 M, pH 7.4). 45 µL of this A+B solution was added to each well of the 96-well storage plate (reaction plate). Liquid in the first 3 columns was moved to another storage plate (quenched plate). The reaction plate was then sealed, incubated at 37 °C, and shaken at a speed of 60 rpm. Time points (0.5 h, 1 h, 2 h) were taken. At each time point, 450 µL pre-cooled internal standard was added to 3 rows in the reaction plate, and the liquid was then transferred to the quenched plate. […] 200 µL supernatant was transferred to a 96-well plate and analyzed by ultra-performance liquid chromatography-mass spectrometry (UPLC-MS) (Waters Inc.). The compounds and internal standard were detected by selected ion recording (SIR).
In general terms: Liver microsomes are a subcellular fraction often used to study metabolism.

The test system of series [4] is L. donovani intracellular amastigotes. Nature of the series: Growth inhibition of intracellular amastigotes in J774A.1 macrophages (Renilla luciferase luminescence). Type of series: cell-based. To be noted: Leishmania donovani, J774.A1; intracellular amastigotes in J774A.1 macrophages; mean ± standard deviation, n = 2; read-out: L. donovani EC50. Here is the method: as §1

Series [5] in a line: Caco-2 permeability assay. Type of series: in vitro ADME. To be noted: human, pH 7.4; for Papp A→B at 2 h, 10 μmol/L / Papp B→A at 2 h, 10 μmol/L: Caco-2, mean ± standard deviation of three runs; for Papp A→B at 2 h, 10 μmol/L: read-out: Caco-2 (A→B) permeability coefficient; for Papp B→A at 2 h, 10 μmol/L: read-out: Caco-2 (B→A) permeability coefficient. A general note: Passage across Caco-2 layers is used to estimate intestinal permeability.

Data on 2 compounds can be found in PMC5764437, “Discovery of novel, orally bioavailable, antileishmanial compounds using phenotypic screening” (PLoS Neglected Tropical Diseases, 2017).

Structures are written as SMILES. Converted amounts (≈) assume the structure as drawn.

In general, solubility refers to the concentration that dissolves in the medium under given conditions. A low value points to little dissolved substance. By EC50 is commonly meant the concentration at which the effect is half-maximal. As a reminder, the half-life is how long it takes for the measured level to halve. The efflux ratio is the permeability from basolateral to apical divided by that in the opposite direction, in the common usage.

For `COc1ccc(-c2c(C(F)(F)F)oc3c(CN4CCN(C)CC4)c(O)ccc3c2=O)cc1OC` [Compound 4], in series [1], the solubility at 18 h was found to be 67 µM (≈ 32.1 µg/mL). For the same compound, in the series on L. mexicana (25 mg/kg daily oral gavage for 10 days from week 4), the “Cutaneous lesion size (footpad width)” value is listed as “controlled lesion size at dimensions similar to that at the time of compound dosing (4 weeks) until week 9”. Besides, the EC50 in series [2] was 80 nM. The half-life at 20 μM in series [3] was greater than 4 h. The EC50 in series [4] was 600 ± 500 nM. Besides, in series [5], the Papp A→B at 2 h, 10 μmol/L turned out to be 49 ± 0.3 ×10⁻⁶ cm/s and the Papp B→A at 2 h, 10 μmol/L is 39 ± 0.7 ×10⁻⁶ cm/s.

With `Cc1ccc(-c2nc3ccccc3s2)cc1NC(=O)c1cc([N+](=O)[O-])c(N2CCN(C)CC2)cc1Cl` [Compound 5], in series [1], the solubility at 18 h is 0.3 µM (≈ 0.157 µg/mL). In addition, the “Cutaneous lesion size (footpad width)” value with L. mexicana (30 mg/kg daily oral gavage for 10 days from week 4) is “controlled lesion size at dimensions similar to that at the time of compound dosing (4 weeks) until week 9”. In addition, in series [2], the EC50 was 22 nM. In addition, in series [3], the half-life at 20 μM was greater than 4 h. Besides, in series [4], the EC50 was determined as 29 ± 27 nM. For the same compound, in series [5] (Caco-2, pH 7.4, Papp B→A / Papp A→B), the efflux ratio at 2 h, 10 μmol/L is 1.92. Besides, in series [5], the Papp A→B at 2 h, 10 μmol/L was determined as 16.8 ± 2.4 ×10⁻⁶ cm/s and the Papp B→A at 2 h, 10 μmol/L is 32.2 ± 2.9 ×10⁻⁶ cm/s.
